Measured values: patent publication US10294202B2, “Pyrrolidinones as herbicides” (FMC Corporation, priority 2013, dated 2019)

What was measured:
[1] = system: giant foxtail; assay: Test A pre-/postemergence herbicide test; format: in vivo, Setaria faberii
Procedure, shortened: (§1)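 Greenhouse pot test with pre- and postemergence application of surfactant-containing solvent formulations. Postemergence plants were 2–10 cm, one- to two-leaf stage. Response scored visually after ~10 days, 0 (no effect) to 100 (complete control).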

[2] = system: corn; assay: Test A pre-/postemergence herbicide test; format: in vivo, Zea mays; settings: Postemergence
Procedure, shortened: as §1

[3] = system: barnyardgrass; assay: Test B flooded paddy test; format: in vivo, Echinochloa crus-galli; settings: 500 g ai/ha, Flood; scale of 0 to 100 where 0 is no effect and 100 is complete control
Procedure, shortened: (§2)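 First, plants reach the 2-leaf stage; next, pots are flooded to 3 cm and compound is delivered into the water; finally, after 13 to 15 greenhouse days at constant depth, injury is graded visually from 0 to 100 against controls.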

[4] = system: kochia; assay: Test A pre-/postemergence herbicide test; format: in vivo, Kochia scoparia
Procedure, shortened: as §1

[5] = system: wheat; assay: Test A pre-/postemergence herbicide test; format: in vivo, Triticum aestivum; settings: Postemergence
Procedure, shortened: as §1

[6] = system: pigweed; assay: Test A pre-/postemergence herbicide test; format: in vivo, Amaranthus retroflexus
Procedure, shortened: as §1

[7] = system: rice; assay: Test B flooded paddy test; format: in vivo, Oryza sativa; settings: 500 g ai/ha, Flood; scale of 0 to 100 where 0 is no effect and 100 is complete control
Procedure, shortened: as §2

[8] = system: blackgrass; assay: Test A postemergence herbicide test; format: in vivo, Alopecurus myosuroides
Procedure, shortened: (§3)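 Visual injury rating, 0 (no effect) to 100 (complete control), versus untreated controls ~10 days after treatment. Postemergence spray applied at one- to two-leaf stage, plants 2–10 cm tall, potted in loam soil/sand. Greenhouse-held.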

[9] = system: ragweed; assay: Test A pre-/postemergence herbicide test; format: in vivo, Ambrosia elatior
Procedure, shortened: as §1

[10] = system: sedge, umbrella; assay: Test B flooded paddy test; format: in vivo, Cyperus difformis; settings: 500 g ai/ha, Flood; scale of 0 to 100 where 0 is no effect and 100 is complete control
Procedure, shortened: as §2

[11] = system: galium; assay: Test A postemergence herbicide test; format: in vivo, Galium aparine
Procedure, shortened: as §3

[12] = system: ducksalad; assay: Test B flooded paddy test; format: in vivo, Heteranthera limosa; settings: 500 g ai/ha, Flood; scale of 0 to 100 where 0 is no effect and 100 is complete control
Procedure, shortened: as §2

[13] = system: ryegrass, Italian; assay: Test A pre-/postemergence herbicide test; format: in vivo, Lolium multiflorum
Procedure, shortened: as §1

[14] = system: barnyardgrass; assay: Test A pre-/postemergence herbicide test; format: in vivo, Echinochloa crus-galli
Procedure, shortened: as §1

[15] = Postemergence, 125 g ai/ha, visual rating on 0 to 100 scale (0 no effect, 100 complete control), approx. 10 days
[16] = Postemergence, 500 g ai/ha, 0 to 100 scale (0 no effect, 100 complete control)
[17] = Preemergence, 125 g ai/ha, 0 to 100 scale where 0 is no effect and 100 is complete control
[18] = preemergence, 500 g ai/ha, 0 to 100 scale, 0 is no effect and 100 is complete control
[19] = 125 g ai/ha, visual rating on 0 to 100 scale (0 no effect, 100 complete control), approx. 10 days
[20] = 500 g ai/ha, 0 to 100 scale (0 no effect, 100 complete control)
[21] = Preemergence, 500 g ai/ha, visual rating on 0 to 100 scale (0 no effect, 100 complete control)

SMILES | Plant response rating, Foxtail, Giant [1, 15] | Plant response rating, Foxtail, Giant [1, 16] | Plant response rating, Foxtail, Giant [1, 17] | Plant response rating, Corn [2, 19] | Plant response rating, Corn [2, 20] | Plant response rating, Barnyardgrass [3] | Plant response rating, Kochia [4, 15] | Plant response rating, Kochia [4, 16] | Plant response rating, Kochia [4, 17] | Plant response rating, Wheat [5, 19] | Plant response rating, Wheat [5, 20] | Plant response rating, Pigweed [6, 15] | Plant response rating, Pigweed [6, 16] | Plant response rating, Pigweed [6, 17] | Plant response rating, Rice [7] | Plant response rating, Blackgrass [8, 19] | Plant response rating, Blackgrass [8, 20] | Plant response rating, Ragweed [9, 15] | Plant response rating, Ragweed [9, 16] | Plant response rating, Ragweed [9, 17] | other results
O=C1NCC(c2cc3ccccc3s2)C1C(=O)Nc1ccccc1F (stereo not drawn) [Compound 295] | 0 | 0 | 0 | 0 | 0 | 30 | 0 | 0 | 0 | 0 | 0 | 0 | 0 | 0 | 0 | 0 | 0 | 0 | 0 | 0 | Plant response rating, Foxtail, Giant [1, 18]: 20; Plant response rating, Kochia [4, 18]: 0; Plant response rating, Pigweed [6, 18]: 0; Plant response rating, Ragweed [9, 18]: 0; Plant response rating, Sedge, Umbrella [10]: 0; Plant response rating, Galium [11, 19]: 0; Plant response rating, Galium [11, 20]: 10; Plant response rating, Ducksalad [12]: 40; Plant response rating, Ryegrass, Italian [13, 15]: 0; Plant response rating, Ryegrass, Italian [13, 16]: 0; Plant response rating, Ryegrass, Italian [13, 17]: 0; Ryegrass, Italian plant response rating [13, 21]: 0; Plant response rating, Barnyardgrass [14, 15]: 0; Plant response rating, Barnyardgrass [14, 16]: 50; Plant response rating, Barnyardgrass [14, 17]: 0; Plant response rating, Barnyardgrass [14, 18]: 70
O=C1NCC(c2cc3ccccc3s2)C1C(=O)Nc1cccc(F)c1F (stereo not drawn) [Compound 296] | 0 | 0 | 0 | 0 | 0 | 30 | 0 | 0 | 0 | 0 | 0 | 0 | 0 | 0 | 0 | 0 | 0 | 0 | 0 | 0 | Plant response rating, Foxtail, Giant [1, 18]: 0; Plant response rating, Kochia [4, 18]: 0; Plant response rating, Pigweed [6, 18]: 0; Plant response rating, Ragweed [9, 18]: 0; Plant response rating, Sedge, Umbrella [10]: 0; Plant response rating, Galium [11, 19]: 0; Plant response rating, Galium [11, 20]: 0; Plant response rating, Ducksalad [12]: 60; Plant response rating, Ryegrass, Italian [13, 15]: 0; Plant response rating, Ryegrass, Italian [13, 16]: 0; Plant response rating, Ryegrass, Italian [13, 17]: 0; Ryegrass, Italian plant response rating [13, 21]: 0; Plant response rating, Barnyardgrass [14, 15]: 0; Plant response rating, Barnyardgrass [14, 16]: 20; Plant response rating, Barnyardgrass [14, 17]: 0; Plant response rating, Barnyardgrass [14, 18]: 0
O=C1NCC(c2cc3ccccc3s2)C1C(=O)Nc1ccccc1C(F)(F)F (stereo not drawn) [Compound 297] | 0 | 0 | 30 | 0 | 0 | 0 | 0 | 0 | 0 | 0 | 0 | 0 | 0 | 0 | 0 | 0 | 10 | 0 | 0 | 0 | Plant response rating, Foxtail, Giant [1, 18]: 70; Plant response rating, Kochia [4, 18]: 0; Plant response rating, Pigweed [6, 18]: 0; Plant response rating, Ragweed [9, 18]: 0; Plant response rating, Sedge, Umbrella [10]: 0; Plant response rating, Galium [11, 19]: 0; Plant response rating, Galium [11, 20]: 0; Plant response rating, Ducksalad [12]: 0; Plant response rating, Ryegrass, Italian [13, 15]: 0; Plant response rating, Ryegrass, Italian [13, 16]: 0; Plant response rating, Ryegrass, Italian [13, 17]: 0; Ryegrass, Italian plant response rating [13, 21]: 0; Plant response rating, Barnyardgrass [14, 15]: 0; Plant response rating, Barnyardgrass [14, 16]: 0; Plant response rating, Barnyardgrass [14, 17]: 0; Plant response rating, Barnyardgrass [14, 18]: 50
O=C1NCC(c2cnn(CC(F)(F)F)c2)C1C(=O)Nc1cccc(F)c1F (stereo not drawn) [Compound 299] | 0 | 50 | 50 | 0 | 0 | 30 | 0 | 0 | 0 | 0 | 0 | 0 | 0 | 0 | 0 | 0 | 0 | 0 | 0 | 0 | Plant response rating, Foxtail, Giant [1, 18]: 80; Plant response rating, Kochia [4, 18]: 0; Plant response rating, Pigweed [6, 18]: 0; Plant response rating, Ragweed [9, 18]: 0; Plant response rating, Sedge, Umbrella [10]: 0; Plant response rating, Galium [11, 19]: 0; Plant response rating, Galium [11, 20]: 0; Plant response rating, Ducksalad [12]: 50; Plant response rating, Ryegrass, Italian [13, 15]: 0; Plant response rating, Ryegrass, Italian [13, 16]: 0; Plant response rating, Ryegrass, Italian [13, 17]: 0; Ryegrass, Italian plant response rating [13, 21]: 0; Plant response rating, Barnyardgrass [14, 15]: 30; Plant response rating, Barnyardgrass [14, 16]: 70; Plant response rating, Barnyardgrass [14, 17]: 10; Plant response rating, Barnyardgrass [14, 18]: 70
CC1(c2ccccc2)CNC(=O)C1C(=O)Nc1ccccc1F (stereo not drawn) [Compound 301] | 0 | 0 | 0 | 0 | 0 | 0 | 0 | 0 | 0 | 0 | 0 | 0 | 0 | 0 | 0 | 0 | 0 | 0 | 0 | 0 | Foxtail, Giant plant response rating [1, 21]: 0; Kochia plant response rating [4, 21]: 0; Pigweed plant response rating [6, 21]: 0; Ragweed plant response rating [9, 21]: 0; Plant response rating, Sedge, Umbrella [10]: 0; Plant response rating, Galium [11, 19]: 0; Plant response rating, Galium [11, 20]: 0; Plant response rating, Ducksalad [12]: 0; Plant response rating, Ryegrass, Italian [13, 15]: 0; Plant response rating, Ryegrass, Italian [13, 16]: 0; Plant response rating, Ryegrass, Italian [13, 17]: 0; Ryegrass, Italian plant response rating [13, 21]: 0; Plant response rating, Barnyardgrass [14, 15]: 0; Plant response rating, Barnyardgrass [14, 16]: 0; Plant response rating, Barnyardgrass [14, 17]: 0; Barnyardgrass plant response rating [14, 21]: 0
